{
  "source": "patent US8765149B2",
  "about": "“Low-oil pharmaceutical emulsion compositions comprising progestogen” (Besins Healthcare Luxembourg Sarl, priority 2010, dated 2014)",
  "origin": "cited, not measured here",
  "tested_on": "TBI patients",
  "details": "two recent clinical trials",
  "data": [
    {"smiles": "CC(=O)[C@H]1CC[C@H]2[C@@H]3CCC4=CC(=O)CC[C@]4(C)[C@H]3CC[C@]12C", "note": "[progesterone, pregn-4-ene-3,20-dione]", "values": [
      {"measurement": "mortality of TBI patients", "result": "decreased mortality"},
      {"measurement": "safety in TBI patients", "result": "safe and well tolerated"}
    ]}
  ]
}
